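These data come from cells grown in 96-well plates and exposed to compound for 48 hours at five concentrations. At the TGI there is no net growth.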
Legend:
Assay in all cases: growth of human tumour cells (NCI), 48 h
HCT-15 colon = test system: HCT-15 colon
KM20L2 colon = test system: KM20L2 colon
OVCAR-4 ovarian = test system: OVCAR-4 ovarian
SNB-19 CNS = test system: SNB-19 CNS
CCRF-CEM leukemia = test system: CCRF-CEM leukemia
RXF-631 renal = test system: RXF-631 renal
SW-620 colon = test system: SW-620 colon
DMS 273 small cell lung = test system: DMS 273 small cell lung
SNB-75 CNS = test system: SNB-75 CNS
SNB-78 CNS = test system: SNB-78 CNS
SN12C renal = test system: SN12C renal
TK-10 renal = test system: TK-10 renal
IGROV1 ovarian = test system: IGROV1 ovarian
NCI-H460 lung = test system: NCI-H460 lung
UACC-62 melanoma = test system: UACC-62 melanoma
COLO 205 colon = test system: COLO 205 colon
CAKI-1 renal = test system: CAKI-1 renal
KM12 colon = test system: KM12 colon
HOP-18 NSCLC = test system: HOP-18 NSCLC
UO-31 renal = test system: UO-31 renal
DLD-1 colon = test system: DLD-1 colon
SK-OV-3 ovarian = test system: SK-OV-3 ovarian
SK-MEL-28 melanoma = test system: SK-MEL-28 melanoma
MALME-3M melanoma = test system: MALME-3M melanoma
786-0 renal = test system: 786-0 renal
HOP-92 NSCLC = test system: HOP-92 NSCLC
OVCAR-3 ovarian = test system: OVCAR-3 ovarian
HCC-2998 colon = test system: HCC-2998 colon
LXFL 529 NSCLC = test system: LXFL 529 NSCLC
SF-268 CNS = test system: SF-268 CNS
SF-539 CNS = test system: SF-539 CNS
EKVX NSCLC = test system: EKVX NSCLC
DMS 114 small cell lung = test system: DMS 114 small cell lung
A498 renal = test system: A498 renal
NCI-H226 lung = test system: NCI-H226 lung
U251 CNS = test system: U251 CNS
HCT-116 colon = test system: HCT-116 colon
ACHN renal = test system: ACHN renal
M19-MEL melanoma = test system: M19-MEL melanoma
M14 melanoma = test system: M14 melanoma
RPMI-8226 leukemia = test system: RPMI-8226 leukemia
UACC-257 melanoma = test system: UACC-257 melanoma
K-562 leukemia = test system: K-562 leukemia
A549 NSCLC = test system: A549 NSCLC
OVCAR-8 ovarian = test system: OVCAR-8 ovarian
SK-MEL-2 melanoma = test system: SK-MEL-2 melanoma
HT29 colon = test system: HT29 colon
SK-MEL-5 melanoma = test system: SK-MEL-5 melanoma
MOLT-4 leukemia = test system: MOLT-4 leukemia
NCI-H522 lung = test system: NCI-H522 lung
HOP-62 NSCLC = test system: HOP-62 NSCLC
NCI-H23 lung = test system: NCI-H23 lung
HL-60(TB) leukemia = test system: HL-60(TB) leukemia
OVCAR-5 ovarian = test system: OVCAR-5 ovarian
LOX IMVI melanoma = test system: LOX IMVI melanoma
SR leukemia = test system: SR leukemia
XF 498 CNS = test system: XF 498 CNS
SF-295 CNS = test system: SF-295 CNS

SMILES: O=C(Nc1ccc(Br)cc1)C(=O)C(C(=O)c1ccccc1F)C1OC(=O)c2ccccc21 (stereo unspecified)
- TGI (HCT-15 colon): > 100 µM
- TGI (KM20L2 colon): > 100 µM
- TGI (OVCAR-4 ovarian): 76 µM
- TGI (SNB-19 CNS): > 100 µM
- TGI (CCRF-CEM leukemia): > 100 µM
- TGI (RXF-631 renal): > 100 µM
- TGI (SW-620 colon): > 100 µM
- TGI (DMS 273 small cell lung): > 100 µM
- TGI (SNB-75 CNS): 51.6 µM
- TGI (SNB-78 CNS): 72.6 µM
- TGI (SN12C renal): 85 µM
- TGI (TK-10 renal): > 100 µM
- TGI (IGROV1 ovarian): > 100 µM
- TGI (NCI-H460 lung): > 100 µM
- TGI (UACC-62 melanoma): 28.1 µM
- TGI (COLO 205 colon): 45.2 µM
- TGI (CAKI-1 renal): 94.2 µM
- TGI (KM12 colon): > 100 µM
- TGI (HOP-18 NSCLC): > 100 µM
- TGI (UO-31 renal): 56.6 µM
- TGI (DLD-1 colon): 80.1 µM
- TGI (SK-OV-3 ovarian): > 100 µM
- TGI (SK-MEL-28 melanoma): 50.2 µM
- TGI (MALME-3M melanoma): 88.6 µM
- TGI (786-0 renal): 56.8 µM
- TGI (HOP-92 NSCLC): 65.2 µM
- TGI (OVCAR-3 ovarian): > 100 µM
- TGI (HCC-2998 colon): 32.1 µM
- TGI (LXFL 529 NSCLC): 89.5 µM
- TGI (SF-268 CNS): 71.5 µM
- TGI (SF-539 CNS): 66.9 µM
- TGI (EKVX NSCLC): > 100 µM
- TGI (DMS 114 small cell lung): 62.8 µM
- TGI (A498 renal): > 100 µM
- TGI (NCI-H226 lung): 19.7 µM
- TGI (U251 CNS): 51.8 µM
- TGI (HCT-116 colon): 35.6 µM
- TGI (ACHN renal): > 100 µM
- TGI (M19-MEL melanoma): 42.7 µM
- TGI (M14 melanoma): 43.9 µM
- TGI (RPMI-8226 leukemia): 64.8 µM
- TGI (UACC-257 melanoma): > 100 µM
- TGI (K-562 leukemia): > 100 µM
- TGI (A549 NSCLC): > 100 µM
- TGI (OVCAR-8 ovarian): 70.3 µM
- TGI (SK-MEL-2 melanoma): 68.6 µM
- TGI (HT29 colon): > 100 µM
- TGI (SK-MEL-5 melanoma): 87.1 µM
- TGI (MOLT-4 leukemia): 92.8 µM
- TGI (NCI-H522 lung): 51.6 µM
- TGI (HOP-62 NSCLC): 50.8 µM
- TGI (NCI-H23 lung): 43.6 µM
- TGI (HL-60(TB) leukemia): 75.6 µM
- TGI (OVCAR-5 ovarian): > 100 µM
- TGI (LOX IMVI melanoma): 44.9 µM

SMILES: COC12CCC(C(C(=O)c3ccccc3)=C1C(=O)c1ccccc1)C(O)C2 (stereo unspecified)
- TGI (HCT-15 colon): > 100 µM
- TGI (OVCAR-4 ovarian): > 100 µM
- TGI (SNB-19 CNS): > 100 µM
- TGI (CCRF-CEM leukemia): > 100 µM
- TGI (RXF-631 renal): > 100 µM
- TGI (SW-620 colon): > 100 µM
- TGI (DMS 273 small cell lung): > 100 µM
- TGI (SNB-75 CNS): > 100 µM
- TGI (SNB-78 CNS): > 100 µM
- TGI (SN12C renal): > 100 µM
- TGI (TK-10 renal): > 100 µM
- TGI (IGROV1 ovarian): > 100 µM
- TGI (UACC-62 melanoma): > 100 µM
- TGI (SR leukemia): > 100 µM
- TGI (COLO 205 colon): > 100 µM
- TGI (CAKI-1 renal): > 100 µM
- TGI (KM12 colon): > 100 µM
- TGI (UO-31 renal): > 100 µM
- TGI (DLD-1 colon): > 100 µM
- TGI (SK-OV-3 ovarian): > 100 µM
- TGI (SK-MEL-28 melanoma): > 100 µM
- TGI (MALME-3M melanoma): > 100 µM
- TGI (786-0 renal): > 100 µM
- TGI (XF 498 CNS): > 100 µM
- TGI (HOP-92 NSCLC): > 100 µM
- TGI (OVCAR-3 ovarian): > 100 µM
- TGI (HCC-2998 colon): > 100 µM
- TGI (LXFL 529 NSCLC): > 100 µM
- TGI (SF-268 CNS): > 100 µM
- TGI (SF-539 CNS): > 100 µM
- TGI (EKVX NSCLC): > 100 µM
- TGI (DMS 114 small cell lung): > 100 µM
- TGI (A498 renal): > 100 µM
- TGI (NCI-H226 lung): > 100 µM
- TGI (HCT-116 colon): > 100 µM
- TGI (M19-MEL melanoma): > 100 µM
- TGI (M14 melanoma): > 100 µM
- TGI (RPMI-8226 leukemia): > 100 µM
- TGI (UACC-257 melanoma): > 100 µM
- TGI (K-562 leukemia): > 100 µM
- TGI (A549 NSCLC): > 100 µM
- TGI (OVCAR-8 ovarian): > 100 µM
- TGI (SK-MEL-2 melanoma): > 100 µM
- TGI (HT29 colon): > 100 µM
- TGI (SK-MEL-5 melanoma): > 100 µM
- TGI (MOLT-4 leukemia): > 100 µM
- TGI (NCI-H522 lung): > 100 µM
- TGI (HOP-62 NSCLC): > 100 µM
- TGI (NCI-H23 lung): > 100 µM
- TGI (HL-60(TB) leukemia): > 100 µM
- TGI (SF-295 CNS): > 100 µM
